Laboratory results: patent US20260102359A1, “COMBINATION TREATMENT OF DERMAL AND TRANSDERMAL FIBROTIC DISEASES, DISORDERS AND ASSOCIATED PAIN AND INFLAMMATION” (ERESINA, LLC, priority 2022, published 2026)
Where a name gives a salt, the structure may show the parent alone.

System: hDMFa myofibroblast cells

| Compound | Compound Myofibroblast Cytotoxicity Activity |
| --- | --- |
| CO[C@@H]1[C@@H](OC(N)=O)[C@@H](O)[C@H](Oc2ccc3c(O)c(NC(=O)c4ccc(O)c(CC=C(C)C)c4)c(=O)oc3c2C)OC1(C)C [Cmpd 724, Novobiocin Sodium] | ++++ |
| CN1CCN(c2nc(C3=C(c4c[nH]c5ccccc45)C(=O)NC3=O)c3ccccc3n2)CC1 [Cmpd 884, Sotrastaurin (AEB071)] | ++ |
| CNCCC(Oc1ccc(C(F)(F)F)cc1)c1ccccc1 (centres unmarked) [Cmpd 464, Fluoxetine HCl] | +++ |
| CC1CCC(C(C)C)C(O)C1 (racemic) [Cmpd 16, (±)-Menthol] | ++ |
| COC(=O)C1=C(C)NC(C)=C(C(=O)OC2CCCN(Cc3ccccc3)C2)C1c1cccc([N+](=O)[O-])c1 (centres unmarked) [Cmpd 161, Benidipine HCl] | ++ |
| CCn1cc(C(=O)O)c(=O)c2cc(F)c(N3CCNCC3)nc21 [Cmpd 416, Enoxacin Sesquihydrate] | ++ |
| CSCC[C@H](N)C(=O)O [Cmpd 657, Methionine] | ++ |
| CCOc1nc2cccc(C(=O)O)c2n1Cc1ccc(-c2ccccc2-c2nnn[nH]2)cc1 [Cmpd 210, Candesartan] | ++ |
| C1=N/C2=N/c3ccc(OCCN4CCCC4)c(c3)COC/C=C/COCc3cccc(c3)C(=C1)N2 [Cmpd 751, Pacritinib (SB1518)] | +++ |
| O=C(O)CCC(=O)Nc1ccc(S(=O)(=O)Nc2nccs2)cc1 [Cmpd 891, Succinylsulfathiazole] | ++ |
| Cn1c(=O)cc(N2CCC[C@@H](N)C2)n(Cc2ccccc2C#N)c1=O [Cmpd 100, Alogliptin Benzoate] | +++ |
| D-(−)-Isoascorbic Acid [Cmpd 306] | + |
| CCOC(=O)C1=C[C@]2(CC)CCCN3CCc4c(n1c1ccccc41)[C@@H]32 [Cmpd 1006, Vinpocetine] | +++ |
| O=S(=O)([O-])CCCS(=O)(=O)[O-].[Na+].[Na+] [Cmpd 423, Eprodisate disodium] | ++ |
| O=c1sn(-c2cccc3ccccc23)c(=O)n1Cc1ccccc1 [Cmpd 946, Tideglusib] | ++ |
| O=P(O)(O)C(Cl)(Cl)P(=O)(O)O [Cmpd 282, Clodronate (sodium salt hydrate)] | +++ |
| CN1CCC(COc2cnc(-c3cccc(Cn4nc(-c5cccc(C#N)c5)ccc4=O)c3)nc2)CC1 [Cmpd 413, EMD-1214063] | ++++ |
| Oc1ccc(Cl)cc1Cc1cc(Cl)ccc1O [Cmpd 353, Dichlorophen] | +++++ |
| CC/C(=C(\c1ccccc1)c1ccc(OCCN(C)C)cc1)c1ccccc1 [Cmpd 911, Tamoxifen Citrate] | +++ |
| CN1CCN(CCCN2c3ccccc3Sc3ccc(Cl)cc32)CC1 [Cmpd 797, Prochlorperazine] | +++++ |
| Cl.Cl.Fc1ccc(C(c2ccc(F)cc2)N2CCN(C/C=C/c3ccccc3)CC2)cc1 [Cmpd 460, Flunarizine 2HCl] | ++ |

| Compound | Compound Myofibroblast Cytotoxicity Activity |
| --- | --- |
| CCCCCCCCCCCCCCO [Cmpd 43, 1-Tetradecanol] | + |
| Cc1nnc(SCC2=C(C(=O)O)N3C(=O)[C@@H](NC(=O)Cn4cnnn4)[C@H]3SC2)s1 [Cmpd 228, Cefazolin (sodium salt)] | +++ |
| C=CC(=O)Nc1cccc(Oc2nc(Nc3ccc(N4CCN(C)CC4)cc3)nc3ccsc23)c1 [Cmpd 735, Olmutinib (HM61713, BI1482694)] | ++++ |
| Cc1[nH]c(/C=C2\C(=O)Nc3ccccc32)c(C)c1CCC(=O)O [Cmpd 979, TSU-68 (SU6668, Orantinib)] | ++ |
| C[C@H](C(=O)O)c1ccc(-c2ccccc2)c(F)c1 [Cmpd 30, (S)-Flurbiprofen] | ++++ |
| COC(=O)C1=C(C#N)NC(C)=C(C(=O)OC(C)C)C1c1cccc([N+](=O)[O-])c1 (centres unmarked) [Cmpd 715, Nilvadipine] | +++ |
| CCCCCCCCCC(=O)O [Cmpd 212, Caprate (10:0)] | ++ |
| Nc1ccc(S(=O)(=O)Nc2nccs2)cc1 [Cmpd 900, Sulfathiazole] | ++++ |
| Cc1ccccc1C(=O)O [Cmpd 742, o-Toluic acid] | ++ |
| O=C(O)c1ccc(O)cc1 [Cmpd 61] | ++++ |
| C=C1/C(=C\C=C2/CCC[C@]3(C)[C@@H]([C@H](C)/C=C/[C@@H](O)C4CC4)CC[C@@H]23)C[C@@H](O)C[C@@H]1O [Cmpd 203, Calcipotriol] | +++ |
| CC(=O)Oc1cc2c(s1)CCN(C(C(=O)C1CC1)c1ccccc1F)C2.Cl (centres unmarked) [Cmpd 794, Prasugrel hydrochloride] | ++ |
| C[C@H]1[C@H](C)CC[C@]2(C(=O)O)CC[C@]3(C)C(=CC[C@@H]4[C@@]5(C)C[C@@H](O)[C@H](O)[C@@](C)(CO)[C@@H]5[C@H](O)C[C@]43C)[C@H]12 [Cmpd 625, Madecassic acid] | +++++ |
| Nc1ccc(C(=O)O)c(O)c1 [Cmpd 59, 4-Aminosalicylic acid] | ++ |
| N[C@@H](CSCCCO)C(=O)O [Cmpd 473, Fudosteine] | ++++ |
| O=c1ccc2[n+]([O-])c3ccc(O)cc3oc-2c1 [Cmpd 827, Resazurin sodium salt] | ++ |
| CCCCCCCCCCCCCCCC(=O)OC [Cmpd 754] | +++ |
| CCCCCCCCCC(=O)O [Cmpd 331, Decanoic acid] | + |
| Cl.Cl.OCCN1CCN(CCCN2c3ccccc3Sc3ccc(C(F)(F)F)cc32)CC1 [Cmpd 465, Fluphenazine dihydrochloride] | +++++ |
| N=C(N/N=C/c1ccc(Cl)cc1)N/N=C/c1ccc(Cl)cc1 [Cmpd 838, Robenidine hydrochloride] | ++ |
| C=C1C(=O)O[C@@H]2C[C@@]3(C)CCC[C@H](C)C3=C[C@H]12 [Cmpd 97, Alantolactone] | ++++ |

| Compound | Compound Myofibroblast Cytotoxicity Activity |
| --- | --- |
| CCN(CC)CC#CCOC(=O)C(O)(c1ccccc1)C1CCCCC1 (centres unmarked) [Cmpd 747, Oxybutynin] | ++ |
| NCC(=O)O [Cmpd 487, Glycine (GLY)] | ++++ |
| CN(C)[C@@H]1C(O)=C(C(N)=O)C(=O)[C@@]2(O)C(O)=C3C(=O)c4c(O)ccc(Cl)c4[C@@](C)(O)[C@H]3C[C@@H]12 [Cmpd 256, Chlortetracycline HCl] | ++ |
| O=C(Nc1ccc([N+](=O)[O-])cc1Cl)c1cc(Cl)ccc1O [Cmpd 708, Niclosamide] | ++ |
| COc1ccccc1N1CCN(CC(O)COc2cccc3ccccc23)CC1 (centres unmarked) [Cmpd 697, Naftopidil] | +++ |
| O=c1ccc2ccc(OCCCCN3CCN(c4cccc5sccc45)CC3)cc2[nH]1 [Cmpd 191, Brexpiprazole] | +++ |
| CN(C)c1ccc(C(=C2C=CC(=[N+](C)C)C=C2)c2ccc(N(C)C)cc2)cc1 [Cmpd 299, Crystal Violet] | +++ |
| O=C(O)c1ccncc1 [Cmpd 537, Isonicotinic acid] | ++++ |
| CN(C(=O)c1c(O)c2ccccc2n(C)c1=O)c1ccccc1 [Cmpd 841, Roquinimex] | ++ |
| N=C(N)NCCC[C@H](N)C(=O)O [Cmpd 561, L-Arginine] | ++ |
| Nc1ncnc2c1ncn2[C@@H]1O[C@H](COP(=O)(O)OP(=O)(O)OP(=O)(O)O)[C@@H](O)[C@H]1O [Cmpd 91, Adenosine 5-triphosphate] | +++ |
| N[C@@H](CCC(=O)N[C@@H](CS)C(=O)NCC(=O)O)C(=O)O [Cmpd 585, L-Glutathione Reduced] | ++++ |
| O=C(O)CC(O)(CC(=O)O)C(=O)O [Cmpd 273, Citric acid] | ++++ |
| CCOC(=O)c1ccc(N)cc1 [Cmpd 166, Benzocaine] | ++ |
| CC/C=C\C/C=C\C/C=C\C/C=C\C/C=C\CCCC(=O)O [Cmpd 408, Eicosapentaenoic Acid] | +++ |
| CC[N+](C)(C)c1cccc(O)c1.[Cl-] [Cmpd 406, Edrophonium (chloride)] | +++ |
| O=C([O-])C[C@H](O)C[C@H](O)/C=C/c1c(C2CC2)nc2ccccc2c1-c1ccc(F)cc1.O=C([O-])C[C@H](O)C[C@H](O)/C=C/c1c(C2CC2)nc2ccccc2c1-c1ccc(F)cc1.[Ca+2] [Cmpd 786, Pitavastatin Calcium] | +++ |
| CCCCCCCCCCCC(=O)O [Cmpd 564, Lauric Acid] | ++ |
| C[C@]12CC[C@@H]3c4ccc(OS(=O)(=O)O)cc4CC[C@H]3[C@@H]1CCC2=O [Cmpd 432, Estropipate] | +++ |
| CN(Cc1cnc2nc(N)nc(N)c2n1)c1ccc(C(=O)N[C@@H](CCC(=O)[O-])C(=O)[O-])cc1.[Na+].[Na+] [Cmpd 658, Methotrexate disodium] | ++ |
